Measurements as given in patent publication US20100068793A1, “DEVICES AND METHODS FOR PRODUCTION OF CELL AGGREGATES” (priority 2007, published 2010).
“Also recorded” adds a separate entry of the source.

What was measured:
[1] = test system: hESC; test: Forced aggregation of hESC with or without ROCK inhibitor Y-27632; format: cell-based, human
Procedure: d) form aggregates in the presence of 10 μM Y27632 5. Suspend cells in X-vivo10 or other medium of interest at a concentration appropriate to the desired EB size and plate format (e.g. to form aggregates from 10,000 cells in 100 μL medium each in 96-well plates, suspend 1 million cells in 10 mL; for aggregates from 2,000 cells in 25 μL medium each in 384-well plates, suspend 0.8 million cells in 10 mL. NB multichannel pipettes or automated liquid handling systems often require a minimum “dead volume”, thus it may be necessary to make 10-20% additional volume of suspension depending on the specifics of the equipment employed. 6. Dispense the cell suspension into the well plates prepared in step 2. 7. Centrifuge for 5 minutes at 240×g 8. Incubate overnight at 37 degrees, 5% CO2 in a standard tissue culture incubator. 9. Recover EBs by pipetting using large-bore or cut-off pipette tips or by inverted centrifugation in the device described and illustrated in FIG. 1 or 2 for 1 minute at 20×g hESC were cultured on Matrigel in conditioned medium or with 48 hours of pre-differentiation in serum-containing medium, and were subjected to the forced aggregation protocol at 2,000 cells per well with or without addition of 10 μM of the ROCK inhibitor Y-27632. […] In the absence of both, no aggregates were formed (N.D.—size not determined). […]

[2] = test system: hESC; test: Aggregate formation from hESC cultured on Matrigel after BMP pre-differentiation; format: cell-based, human; conditions: 50 ng/mL BMP4 pre-differentiation, control without BMP4 formed no aggregates
Procedure: Prepare a single-cell suspension by treating the hESC culture with TrypIE for 5 minutes, and washing the cells off with X-Vivo10
Count cells, spin down and re-suspend to 1 million cells/mL in X-Vivo or other medium of interest. Cells may all derive from a single culture, or cells from different sources may be combined.

Row | Compound | aggregate size and symmetry ([1]; 10 μM Y-27632, hESC cultured on Matrigel, 2,000 cells per well, with or without 48 hours pre-differentiation in serum-containing medium) | aggregate formation / stability (SISO-aggregates, cross-sectional area) ([1]; 10 μM Y-27632 added to cell suspension immediately prior to dispensing, hESC on Matrigel in MEF-conditioned medium, with or without 48 hours predifferentiation in 20% serum) | stable aggregate formation after BMP4 pre-differentiation [2]
1 | C[C@@H](N)[C@H]1CC[C@H](C(=O)Nc2ccncc2)CC1 [Y-27632] | size and symmetry of aggregates are improved; also recorded: substantially increased aggregate size and symmetry | sizeable aggregates resulted | 
2 | BMP4: bone morphogenetic protein growth factor used for pre-differentiation |  |  | Aggregates formed from the pre-differentiated population
